Assay results published in patent publication US8481459B2, “Chemical inhibitors of ethylene biosynthesis” (Academia Sinica, priority 2010, dated 2013).

Test system: gene expression in etiolated eto1-4 seedlings
Experiment: Transcriptional profiling (ATH1 GeneChip microarray) of etiolated eto1-4 seedlings
Assay type: in vivo, Arabidopsis thaliana
Experimental: For chemical treatments, seeds were sown on 0.5×MS agar medium supplemented with 10 μM chemicals (AVG, compounds 9393, 9370, and 7303) or DMSO (as control). Arabidopsis seeds were stratified in the dark at 4° C. for 4 days, then germinated in the dark for 3 days at 22° C. Approximately 2,000 etiolated seedlings of the wild type or eto1-4 were used to collect tissues for preparation of total RNA in each microarray experiment with Arabidopsis ATH1 GeneChip (Affymetrix). Extraction of RNA followed an established protocol (Chang, et al. (1993) Plant Mol. Biol. Rep. 11, 113-117). Total RNA (10 μg) was used to prepare biotinylated cRNA for hybridization to ATH1 GeneChip in the experiments disclosed herein. Experiments were repeated by 2 independent biological duplicates, and candidate genes present in both experiments were selected for further analysis. The MASS method was used for data analysis and normalization by all sample medium. Candidate genes were selected by the following criteria. First, genes with 1.5-fold differential expression between the wild type and eto1-4 were selected as the master gene pool, which was then used for comparison in treatments with AVG and individual exemplary compounds. Data were presented in hierarchical clustering and Venn diagram format. Agilent GeneSpring GX and Bioconductor software were used to analyze the expression profile data. Gene Ontology descriptions were generated by GeneSpring GX and further referred to the TAR GO database. Raw data are available in the GEO database (http://www.ncbi.nlm.nih.gov/geo) with Accession no. GSE20897.
The filtered and normalized expression data set from 22810 probes on the ATH1 Genechip was used for hierarchical clustering of gene expression profiles for comparison between AVG and the exemplary invention compounds in eto1-4. It was identified that 1,446 genes show at least 1.5-fold difference in expression between the WT and eto1-4 and used them as the master gene pool for clustering analysis (FIG. 7A). […] These genes likely contribute to the etiolated phenotype of eto1-4 by responding to elevated endogenous ethylene. To determine whether the exemplary compounds have specific r overlapping functions with AVG to suppress the eto1-4 phenotype, genes that are regulated by individual exemplary invention compounds and AVG for Venn diagram analysis were clustered (FIG. 7B). More than 63% of genes (356/561 for compound 9393; 389/561 for compound 9370; 399/561 for compound 7303; FIG. 7B) with expression associated with AVG were co-regulated by the exemplary invention compounds, which indicates an overlap function in suppression of the ethylene phenotype in eto1-4. […] Next genes co-regulated by all of the exemplary invention compounds and AVG were examined by performing a clustering analysis using the co-regulated genes identified in FIG. 7B: 356 (compound 9393 vs AVG), 389 (compound 9370 vs AVG) and 399 genes (compound 7303 vs AVG). It was uncovered that 276 genes were co-regulated by all of the exemplary invention compounds and AVG (FIG. 7C and Table 2). On the basis of GO descriptions generated by Gene Spring GX and TAIR database, the 276 genes were divided into subgroups related to their biological functions (Table 2). […] In addition, stress- and pathogenesis-related genes were among the co-regulated genes, possibly because ethylene is involved in both biotic and abiotic stresses.
Genes (1446 non-redundant loci) were selected by 1.5-fold differential expression between eto1-4 and WT as the master pool for analysis. These genes were used for comparison between chemical treatments by AVG and the exemplary invention compounds. The finalized 276 genes that are co-regulated by AVG and all of the exemplary invention compounds are shown. Locus ID also present in Nemhauser et al. (Nemhauser, et al. (2006) Cell 126, 467-475).

[1] = of 1446 genes differentially expressed between WT and eto1-4, 10 μM
[2] = ratio eto1-4 treated to eto1-4 (no treatment)

CC1(C)CC(=O)c2cnc(NC3CCCC3)nc2C1 [Compound 9393]
number of genes co-regulated with AVG (of 561 genes associated with AVG, 10 μM): 356 genes | number of genes regulated (expression reverted close to WT) [1]: 629 genes | percentage of genes regulated (expression reverted close to WT) [1]: 43.5% | number of genes regulated specifically, not related to AVG treatment (of all genes regulated by the compound (629, 728, 650), 10 μM): 273 genes | Signal Fold Change AT1G03457, unknown biological function [2]: 2.24 | Signal Fold Change AT1G03660, unknown biological function [2]: 1.84 | Signal Fold Change AT1G05010 ACC oxidase [2]: 0.28 | Signal Fold Change AT1G05760 jacalin lectin protein [2]: 2.69 | Signal Fold Change AT1G06720 expressed protein [2]: 1.15 | Signal Fold Change AT1G07280, unknown biological function [2]: 0.44 | Signal Fold Change AT1G07560 leucine-rich repeat protein kinase [2]: 2.23 | Signal Fold Change AT1G08650 phosphoenolpyruvate carboxylase kinase [2]: 1.96 | Signal Fold Change AT1G08990 glycogenin glucosyltransferase [2]: 1.61 | Signal Fold Change AT1G09530 phytochrome interacting factor 3 [2]: 0.35 | Signal Fold Change AT1G10760 starch excess protein (SEX1) [2]: 0.46 | Signal Fold Change AT1G13430, response to cytokinin stimulus, sulfotransferase protein [2]: 0.38 | Signal Fold Change AT1G14540 anionic peroxidase [2]: 0.46 | Signal Fold Change AT1G15380 lactoylglutathione lyase [2]: 1.96 | Signal Fold Change AT1G17970, unknown biological function [2]: 2.17 | Signal Fold Change AT1G18880 proton-dependent oligopeptide transport (POT) protein [2]: 2.00 | Signal Fold Change AT1G20190, cell wall organization and biogenesis, expansin (EXP11) [2]: 0.43 | Signal Fold Change AT1G22740 Ras-related protein (RAB7) [2]: 2.34 | Signal Fold Change AT1G23060, unknown biological function [2]: 0.40 | Signal Fold Change AT1G26930, unknown biological function [2]: 0.50 | Signal Fold Change AT1G27380 p21-rho-binding domain-containing protein [2]: 2.10 | Signal Fold Change AT1G29520, unknown biological function [2]: 1.83 | Signal Fold Change AT1G30750, unknown biological function [2]: 2.23 | Signal Fold Change AT1G31710 copper amine oxidase [2]: 3.17 | Signal Fold Change AT1G32410 vacuolar protein sorting 55 protein [2]: 1.62 | Signal Fold Change AT1G32560 late embryogenesis abundant group 1 domain-containing protein [2]: 1.35 | Signal Fold Change AT1G33470, unknown biological function [2]: 2.32 | Signal Fold Change AT1G33790, unknown biological function [2]: 0.20 | Signal Fold Change AT1G34040, unknown biological function [2]: 1.69 | Signal Fold Change AT1G35350, unknown biological function [2]: 3.85 | Signal Fold Change AT1G35612, unknown biological function [2]: 3.38 | Signal Fold Change AT1G42470, unknown biological function [2]: 4.11 | Signal Fold Change AT1G44800, unknown biological function [2]: 1.86 | Signal Fold Change AT1G44830 AP2-containing transcription factor [2]: 0.34 | Signal Fold Change AT1G48480 leucine-rich repeat trans-membrane protein kinase [2]: 2.65 | Signal Fold Change AT1G49660 expressed protein [2]: 0.38 | Signal Fold Change AT1G50560 cytochrome P450 [2]: 1.77 | Signal Fold Change AT1G52830 auxin-responsive protein [2]: 3.44 | Signal Fold Change AT1G56010 transcription activator NAC1 [2]: 2.29 | Signal Fold Change AT1G56020, unknown biological function [2]: 0.60 | Signal Fold Change AT1G58070, unknown biological function [2]: 2.13 | Signal Fold Change AT1G59590, unknown biological function [2]: 2.57 | Signal Fold Change AT1G59740 proton-dependent oligopeptide transport (POT) protein [2]: 0.46 | Signal Fold Change AT1G62290 aspartyl protease protein [2]: 0.32 | Signal Fold Change AT1G62510 lipid transfer protein [2]: 1.63 | Signal Fold Change AT1G62620, unknown biological function [2]: 2.65 | Signal Fold Change AT1G64200 V-ATPase E subunit [2]: 2.10 | Signal Fold Change AT1G65510, unknown biological function [2]: 2.13 | Signal Fold Change AT1G65920, unknown biological function [2]: 0.37 | Signal Fold Change AT1G66230 myb transcription factor (MYB20) [2]: 3.04 | Signal Fold Change AT1G67030 zinc finger (C2H2 type) protein [2]: 6.01 | Signal Fold Change AT1G68230, unknown biological function [2]: 2.42 | Signal Fold Change AT1G68520 zinc finger (B-box type) protein [2]: 2.45 | Signal Fold Change AT1G69570 Dof-type zinc finger-containing protein [2]: 3.88 | Signal Fold Change AT1G70210 cyclin delta-1 [2]: 3.05 | Signal Fold Change AT1G70850 Bet v I allergen protein [2]: 7.24 | Signal Fold Change AT1G70890 major latex protein [2]: 5.37 | Signal Fold Change AT1G71030 myb transcription factor (MYB2) [2]: 4.86 | Signal Fold Change AT1G71740, unknown biological function [2]: 2.19 | Signal Fold Change AT1G72230 plastocyanin like protein [2]: 2.45 | Signal Fold Change AT1G73220 sugar transporter protein [2]: 2.95 | Signal Fold Change AT1G73300 serine carboxypeptidase S10 protein [2]: 1.94 | Signal Fold Change AT1G73310 serine carboxypeptidase S10 protein [2]: 2.66 | Signal Fold Change AT1G73330 protease inhibitor [2]: 2.84 | Signal Fold Change AT1G73590 auxin efflux carrier protein [2]: 2.02 | Signal Fold Change AT1G73640, small GTPase mediated signal transduction, Ras-related GTP-binding protein [2]: 1.94 | Signal Fold Change AT1G73830 bHLH protein [2]: 0.28 | Signal Fold Change AT1G75500, unknown biological function [2]: 3.12 | Signal Fold Change AT1G76220, unknown biological function [2]: 3.40 | Signal Fold Change AT1G76500, photomorphogenesis, DNA-binding protein [2]: 0.39 | Signal Fold Change AT1G76540 cell division control protein [2]: 2.16 | Signal Fold Change AT1G76790, unknown biological function [2]: 2.90 | Signal Fold Change AT1G78240 dehydration-responsive protein [2]: 0.49 | Signal Fold Change AT1G80380 phosphoribulokinase [2]: 2.17 | Signal Fold Change AT2G01910, microtubule nucleation, microtubule associated protein (MAP65/ASE1) protein [2]: 2.21 | Signal Fold Change AT2G02820 myb transcription factor (MYB88) [2]: 3.34 | Signal Fold Change AT2G02850 plantacyanin [2]: 0.27 | Signal Fold Change AT2G16580 auxin-responsive protein [2]: 2.33 | Signal Fold Change AT2G16990, unknown biological function [2]: 2.49 | Signal Fold Change AT2G19590 ACC oxidase [2]: 0.29 | Signal Fold Change AT2G19970, unknown biological function [2]: 2.19 | Signal Fold Change AT2G20080, unknown biological function [2]: 4.77 | Signal Fold Change AT2G20670, unknown biological function [2]: 2.36 | Signal Fold Change AT2G21820, unknown biological function [2]: 1.08 | Signal Fold Change AT2G21880 Ras-related GTP-binding protein [2]: 3.83 | Signal Fold Change AT2G22860 phytosulfokines 2 (PSK2) [2]: 2.20 | Signal Fold Change AT2G24150 expressed protein (response to hormone stimulus) [2]: 2.23 | Signal Fold Change AT2G25900 zinc finger (CCCH-type) protein [2]: 1.27 | Signal Fold Change AT2G26070 expressed protein (response to ethylene stimulus) [2]: 0.32 | Signal Fold Change AT2G26440 pectinesterase protein [2]: 0.36 | Signal Fold Change AT2G26740 epoxide hydrolase [2]: 0.29 | Signal Fold Change AT2G27140 heat shock protein [2]: 2.32 | Signal Fold Change AT2G27370, unknown biological function [2]: 1.90 | Signal Fold Change AT2G28305, unknown biological function [2]: 2.70 | Signal Fold Change AT2G28410, unknown biological function [2]: 2.86 | Signal Fold Change AT2G29340 short-chain dehydrogenase [2]: 0.47 | Signal Fold Change AT2G29440, toxin catabolic process, glutathione S-transferase [2]: 0.31 | Signal Fold Change AT2G30360 CBL-interacting protein kinase 11 (CIPK11) [2]: 1.81 | Signal Fold Change AT2G33380 calcium-binding RD20 protein [2]: 0.26 | Signal Fold Change AT2G33990, unknown biological function [2]: 2.38 | Signal Fold Change AT2G34300, unknown biological function [2]: 0.40 | Signal Fold Change AT2G34500 cytochrome P450 [2]: 3.82 | Signal Fold Change AT2G34510, unknown biological function [2]: 2.66 | Signal Fold Change AT2G34700, unknown biological function [2]: 1.10 | Signal Fold Change AT2G35300 late embryogenesis abundant group 1 domain-containing protein [2]: 1.93 | Signal Fold Change AT2G35710 glycogenin glucosyltransferase [2]: 2.39 | Signal Fold Change AT2G36350 protein kinase [2]: 0.54 | Signal Fold Change AT2G36410, unknown biological function [2]: 2.46 | Signal Fold Change AT2G37130 peroxidase 21 [2]: 1.93 | Signal Fold Change AT2G38760, unknown biological function [2]: 2.89 | Signal Fold Change AT2G38790, unknown biological function [2]: 1.78 | Signal Fold Change AT2G39010 aquaporin [2]: 1.84 | Signal Fold Change AT2G39310, unknown biological function [2]: 1.97 | Signal Fold Change AT2G39980, unknown biological function [2]: 0.14 | Signal Fold Change AT2G40420 amino acid transporter [2]: 1.87 | Signal Fold Change AT2G41090, unknown biological function [2]: 0.26 | Signal Fold Change AT2G41230, unknown biological function [2]: 0.08 | Signal Fold Change AT2G42320, unknown biological function [2]: 0.55 | Signal Fold Change AT2G43050 pectinesterase protein [2]: 2.06 | Signal Fold Change AT2G43535 trypsin inhibitor [2]: 4.42 | Signal Fold Change AT2G44110 seven transmembrane MLO protein [2]: 0.45 | Signal Fold Change AT2G44130 kelch repeat containing F-box protein [2]: 3.36 | Signal Fold Change AT2G47510 fumarate hydratase [2]: 0.53 | Signal Fold Change AT2G47550 pectinesterase protein [2]: 0.39 | Signal Fold Change AT2G48030, unknown biological function [2]: 2.18 | Signal Fold Change AT3G04010 glycosyl hydrolase [2]: 2.09 | Signal Fold Change AT3G05990, signal transduction, phosphodiesterase leucine-rich repeat protein [2]: 2.05 | Signal Fold Change AT3G09020, unknown biological function [2]: 2.36 | Signal Fold Change AT3G09780 protein kinase [2]: 0.55 | Signal Fold Change AT3G10080, unknown biological function [2]: 2.22 | Signal Fold Change AT3G10340 phenylalanine ammonia-lyase [2]: 2.17 | Signal Fold Change AT3G11550, unknown biological function [2]: 2.20 | Signal Fold Change AT3G12030, DNA repair, expressed protein [2]: 1.73 | Signal Fold Change AT3G12500 basic endocexemplary inase [2]: 1.85 | Signal Fold Change AT3G13980, unknown biological function [2]: 6.83 | Signal Fold Change AT3G14370 protein kinase [2]: 0.30
